{"source": "patent US9334267B2", "about": "“RAF inhibitor compounds” (Deciphera Pharmaceuticals, LLC, priority 2012, dated 2016)", "key": {"[1]": {"system": "phospho-ERK in A375 (BRAF V600E) xenograft", "assay": "A375 mouse xenograft pharmacodynamic assay (tumor phospho-ERK by ELISA)", "format": "in vivo", "details": "A375 xenografts in nude female mice, 20 mg/kg oral (gavage), vs vehicle", "experimental": "To evaluate the in vivo pharmacodynamic (PD) effects of compounds of Formula I, an A375 (BRAF V600E) xenograft model is employed. Briefly, 10×10^6 A375 tumor cells (ATCC) are prepared in a 1:1 matrigel mix (0.2 mL total volume) and implanted by subcutaneous injection in hind leg of nude female mice. A total of 4 mice each for each dosing group are employed. Treatment is initiated with oral administration (gavage) of test compound or vehicle (20% captisol, 25 mM phosphate, pH2.0) in 0.2 mL volume when average tumor size reaches approximately 300 mg. After a fixed time interval, the tumors are harvested and the phospho-ERK levels are measured by ELISA (Enzyme-linked immunosorbent assay). Treated groups are compared to the vehicle control group to calculate % inhibition."}, "[2]": {"system": "phospho-ERK in HCT-116 cells", "assay": "HCT-116 cell pERK assay (AlphaScreen SureFire)", "format": "cell-based", "details": "Homo sapiens, B-Raf wild type, K-Ras mutation, 4 hours, range over the listed examples, read-out: phospho-ERK signal IC50", "experimental": "Examples of Formula I are tested against HCT-116 cells harboring wild type B-Raf and K-Ras mutation. The phospho-ERK activities are evaluated as described below.\nHCT-116 cells (catalog #CCL-247) are obtained from the American Type Culture Collection (ATCC, Manassas, Va.). Briefly, cells are grown in McCoy's 5A supplemented with 10% characterized fetal bovine serum (Invitrogen, Carlsbad, Calif.), and 1% Penicillin/Streptomycin/L-Glutamine at 37 degrees Celsius, 5% CO2, and 95% humidity. Cells are allowed to expand until reaching 75-90% confluency at which point they are subcultured or harvested for assay use. HCT-116 cells suspended in complete media are added to 384-well tissue culture treated plates (3×10^5 cells/mL; 7,500 cells per well). The cells are incubated overnight at 37 degrees Celsius, 5% CO2, and 95% humidity. Next, test compound or DMSO diluted in complete media is added to the wells (0.25% final DMSO concentration). The plates are then incubated for 4 hours at 37 degrees Celsius, 5% CO2, and 95% humidity. Following compound incubation, the cells are lysed at 4° C. for 20 minutes with shaking. Cell lysates are centrifuged and the supernatant is transferred to a new plate. An aliquot of each lysate is transferred to a white 384-well assay plate. Using the AlphaScreen SureFire pERK kit (Perkin-Elmer, Waltham, Mass.), an acceptor bead mixture is added to each well and incubated for 2 h at room temperature in the dark. A donor bead mixture is then added to each well and incubated for 2 h at room temperature in the dark. Plates are read using a Synergy2 plate reader (Biotek, Winooski, Vt.) in Plate Mode with Timing Control. Read: (F)1: excitation: 680/30 nm, emission: Plug. 2: Excitation: Plug, emission: 570/100 nm. Top mirror 635 nm. Data is analyzed using Prism software (Graphpad, San Diego, Calif.) to calculate IC50 values and Excel software (Microsoft, Redmond, Wash.) to calculate stimulation compared to control."}, "[3]": {"system": "A375 V600E xenograft tumor", "assay": "A375 rat xenograft efficacy model", "format": "in vivo, rats", "details": "orally twice a day at 10 and 20 mg/kg for 21 days", "experimental": "To further evaluate in vivo activity of compounds of Formula I, A375 V600E (ATCC) and HCT-116 K—Ras mutant B-Raf wild type (ATCC) xenograft tumor models are used. Briefly, 10×10^6 cells (A375) or 5×10^6 cells (HCT-116) in a 1:1 medium and matrigel mix (0.2 mL total volume) are implanted by subcutaneous injection in the hind leg of nude female rats (NIH model No. NIHRNU-M from Taconic). A total of 8 rats in each group are used for the efficacy study, and a total of 3-4 rats in each group are used for a pharmacodynamic study. Treatment is initiated with oral administration (gavage) of test compound or vehicle (20% Captisol®, 25 mM phosphate, pH 2.0) in 0.6 mL volume when tumor size reaches approximately 500 mg. Test compound is orally dosed twice a day for 21 days. Tumor growth and body weight are monitored over time to evaluate activity and signs of toxicity. Bidimensional measurements of tumors are performed twice a week and tumor volumes are calculated based on mid-axis length and mid-axis width. Tumor volume data are transformed to a log scale to equalize variance across time and treatment groups. The log volume data are analyzed with a two-way repeated measures analysis of variance by time and treatment using the MIXED® procedures in SAS® software (version 8.2). The correlation model for the repeated measures is spatial power. […]"}}, "data": [{"smiles": "CNc1ncc2cc(-c3cc(NC(=O)NCCC(C)(C)C)c(F)cc3F)c(C)nc2n1", "note": "[Example 1, 1-(2,4-Difluoro-5-(7-methyl-2-(methylamino)pyrido[2,3-d]pyrimidin-6-yl)phenyl)-3-(3,3-dimethylbutyl)urea]", "values": [{"measurement": "Measured pERK inhibition 2 h post dose", "setting": "[1]", "result": 54, "unit": "% inhibition"}]}, {"smiles": "CNc1ncc2cc(-c3ccc(F)c(NC(=O)NCCC(C)(C)C)c3)c(C)nc2n1", "note": "[Example 2, 1-(3,3-Dimethylbutyl)-3-(2-fluoro-5-(7-methyl-2-(methylamino)pyrido[2,3-d]pyrimidin-6-yl)phenyl)urea]", "values": [{"measurement": "Measured pERK inhibition 2 h post dose", "setting": "[1]", "result": 38, "unit": "% inhibition"}]}, {"smiles": "CNc1ncc2cc(-c3cc(NC(=O)NCCC(C)(C)F)c(F)cc3C)c(C)nc2n1", "note": "[Example 4, 1-(3-Fluoro-3-methylbutyl)-3-(2-fluoro-4-methyl-5-(7-methyl-2-(methylamino)pyrido[2,3-d]pyrimidin-6-yl)phenyl)urea]", "values": [{"measurement": "Measured pERK inhibition 2 h post dose", "setting": "[1]", "result": 84, "unit": "% inhibition"}, {"measurement": "IC50 shift A375 to A375res", "setting": "A375res cells", "result": "0.6-1.9 fold"}]}, {"smiles": "COCCNc1ncc2cc(-c3cc(NC(=O)NCCC(C)(C)C)c(F)cc3C)c(C)nc2n1", "note": "[Example 5, 1-(3,3-Dimethylbutyl)-3-(2-fluoro-5-(2-((2-methoxyethyl)amino)-7-methylpyrido[2,3-d]pyrimidin-6-yl)-4-methylphenyl)urea]", "values": [{"measurement": "Measured pERK inhibition 2 h post dose", "setting": "[1]", "result": 77, "unit": "% inhibition"}]}, {"smiles": "CNc1ncc2cc(-c3cc(NC(=O)NCC(O)C(C)(C)C)c(F)cc3C)c(C)nc2n1", "note": "(centres unmarked) [Example 15, 1-[2-Fluoro-4-methyl-5-(7-methyl-2-methylamino-pyrido[2,3-d]pyrimidin-6-yl)phenyl]-3-(2-hydroxy-3,3-dimethyl-butyl)urea]", "values": [{"measurement": "IC50 shift A375 to A375res", "setting": "A375res cells", "result": "0.6-1.9 fold"}]}, {"smiles": "Cc1cc(F)c(NC(=O)NCCC(C)(C)C)cc1-c1cc2cnc(NCCO)nc2nc1C", "note": "[Example 16, 1-(3,3-Dimethylbutyl)-3-[2-fluoro-5-[2-(2-hydroxyethylamino)-7-methyl-pyrido[2,3-d]pyrimidin-6-yl]-4-methyl-phenyl]urea]", "values": [{"measurement": "IC50 shift A375 to A375res", "setting": "A375res cells", "result": "0.6-1.9 fold"}]}, {"smiles": "Cc1cc(F)c(NC(=O)NCCC(C)(C)C)cc1-c1cc2cnc(NCCN(C)C)nc2nc1C", "note": "[Example 17, 1-[5-[2-(2-Dimethylaminoethylamino)-7-methyl-pyrido[2,3-d]pyrimidin-6-yl]-2-fluoro-4-methyl-phenyl]-3-(3,3-dimethylbutyl)urea]", "values": [{"measurement": "IC50 shift A375 to A375res", "setting": "A375res cells", "result": "0.6-1.9 fold"}]}, {"smiles": "Cc1cc(F)c(NC(=O)NCCC(C)(C)C)cc1-c1cc2cnc(N)nc2nc1C", "note": "[Example 20, 1-(5-(2-Amino-7-methylpyrido[2,3-d]pyrimidin-6-yl)-2-fluoro-4-methylphenyl)-3-(3,3-dimethylbutyl)urea]", "values": [{"measurement": "IC50 shift A375 to A375res", "setting": "A375res cells", "result": "0.6-1.9 fold"}]}, {"smiles": "Cc1cc(F)c(NC(=O)NCCC(C)(C)C)cc1-c1cc2cnc(NCCN3CCOCC3)nc2nc1C", "note": "[Example 21, 1-(3,3-Dimethylbutyl)-3-(2-fluoro-4-methyl-5-(7-methyl-2-((2-morpholinoethyl)amino)pyrido[2,3-d]pyrimidin-6-yl)phenyl)ure]", "values": [{"measurement": "IC50 shift A375 to A375res", "setting": "A375res cells", "result": "0.6-1.9 fold"}]}, {"smiles": "CNc1ncc2cc(-c3cc(NC(=O)NCCC4(C)CC4)c(F)cc3C)c(C)nc2n1", "note": "[Example 24, 1-(2-Fluoro-4-methyl-5-(7-methyl-2-(methylamino)pyrido[2,3-d]pyrimidin-6-yl)phenyl)-3-(2-(1-methylcyclopropyl)ethyl)urea]", "values": [{"measurement": "Measured pERK inhibition 2 h post dose", "setting": "[1]", "result": 88, "unit": "% inhibition"}, {"measurement": "IC50", "setting": "[2]", "result": "0.002 to 0.472", "unit": "µM"}, {"measurement": "IC50 shift A375 to A375res", "setting": "A375res cells", "result": "0.6-1.9 fold"}, {"measurement": "tumor growth", "setting": "[3]; both dosing groups", "result": "tumor growth inhibition and tumor growth regression"}, {"measurement": "animal body weight", "setting": "[3]; either group", "result": "no animal body weight loss"}]}, {"smiles": "Cc1cc(F)c(NC(=O)NCCC(C)(C)F)cc1-c1cc2cnc(NC3COC3)nc2nc1C", "note": "[Example 25, 1-(3-Fluoro-3-methylbutyl)-3-(2-fluoro-4-methyl-5-(7-methyl-2-(oxetan-3-ylamino)pyrido[2,3-d]pyrimidin-6-yl)phenyl)urea]", "values": [{"measurement": "IC50", "setting": "[2]", "result": "0.002 to 0.472", "unit": "µM"}, {"measurement": "IC50 shift A375 to A375res", "setting": "A375res cells", "result": "0.6-1.9 fold"}]}, {"smiles": "CCNc1ncc2cc(-c3cc(NC(=O)NCCC(C)(C)F)c(F)cc3C)c(C)nc2n1", "note": "[Example 26, 1-(5-(2-(Ethylamino)-7-methylpyrido[2,3-d]pyrimidin-6-yl)-2-fluoro-4-methylphenyl)-3-(3-fluoro-3-methylbutyl)urea]", "values": [{"measurement": "IC50 shift A375 to A375res", "setting": "A375res cells", "result": "0.6-1.9 fold"}]}, {"smiles": "CNc1ncc2cc(-c3cc(NC(=O)NCCC(C)(C)C(F)(F)F)c(F)cc3C)c(C)nc2n1", "note": "[Example 27, 1-(2-Fluoro-4-methyl-5-(7-methyl-2-(methylamino)pyrido[2,3-d]pyrimidin-6-yl)phenyl)-3-(4,4,4-trifluoro-3,3-dimethylbutyl)urea]", "values": [{"measurement": "IC50 shift A375 to A375res", "setting": "A375res cells", "result": "0.6-1.9 fold"}]}, {"smiles": "Cc1cc(F)c(NC(=O)NCCC(C)(C)F)cc1-c1cc2cnc(N)nc2nc1C", "note": "[Example 28, 1-(5-(2-Amino-7-methylpyrido[2,3-d]pyrimidin-6-yl)-2-fluoro-4-methylphenyl)-3-(3-fluoro-3-methylbutyl)urea]", "values": [{"measurement": "IC50 shift A375 to A375res", "setting": "A375res cells", "result": "0.6-1.9 fold"}]}, {"smiles": "CNc1ncc2cc(-c3cc(NC(=O)NCCC4(C(F)(F)F)CC4)c(F)cc3C)c(C)nc2n1", "note": "[Example 30, 1-(2-Fluoro-4-methyl-5-(7-methyl-2-(methylamino)pyrido[2,3-d]pyrimidin-6-yl)phenyl)-3-(2-(1-(trifluoromethyl)cyclopropyl)ethyl)urea]", "values": [{"measurement": "IC50 shift A375 to A375res", "setting": "A375res cells", "result": "0.6-1.9 fold"}]}, {"smiles": "CNc1ncc2cc(-c3cc(NC(=O)NCCC(C)(C)F)c(F)cc3C)cnc2n1", "note": "[Example 34, 1-(3-Fluoro-3-methyl-butyl)-3-[2-fluoro-4-methyl-5-(2-methylaminopyrido[2,3-d]pyrimidin-6-yl)phenyl]urea]", "values": [{"measurement": "Measured pERK inhibition 2 h post dose", "setting": "[1]", "result": 72, "unit": "% inhibition"}, {"measurement": "IC50 shift A375 to A375res", "setting": "A375res cells", "result": "0.6-1.9 fold"}]}, {"smiles": "CNc1ncc2cc(-c3cc(NC(=O)NCCC(C)(C)C)c(F)cc3C)cnc2n1", "note": "[Example 35, 1-(3,3-Dimethylbutyl)-3-[2-fluoro-4-methyl-5-(2-methylaminopyrido[2,3-d]pyrimidin-6-yl)phenyl]urea]", "values": [{"measurement": "Measured pERK inhibition 2 h post dose", "setting": "[1]", "result": 79, "unit": "% inhibition"}, {"measurement": "IC50", "setting": "[2]", "result": "0.002 to 0.472", "unit": "µM"}, {"measurement": "IC50 shift A375 to A375res", "setting": "A375res cells", "result": "0.6-1.9 fold"}]}]}
